Data taken from patent US10294202B2, “Pyrrolidinones as herbicides” (FMC Corporation, priority 2013, dated 2019).

Tests used:
[1] = test system: blackgrass; experiment: Test A postemergence herbicide test; format: in vivo, Alopecurus myosuroides; conditions: for Plant response rating, Blackgrass: 125 g ai/ha, 0 to 100 scale, 0 is no effect, 100 is complete control; for Blackgrass plant response rating (0 to 100 scale, 0 is no effect, 100 is complete control): 500 g ai/ha
How it was run: (§1)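 Potted in loam soil/sand blend; postemergence application at 1–2 leaf stage (2–10 cm). Greenhouse ~10 d. Visual injury vs untreated, 0–100 scale; 100 = complete control.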

[2] = test system: corn; experiment: Test A pre-/postemergence herbicide test; format: in vivo, Zea mays; conditions: Postemergence; for Plant response rating, Corn: 125 g ai/ha, 0 to 100 scale, 0 is no effect, 100 is complete control; for Corn plant response rating (0 to 100 scale, 0 is no effect, 100 is complete control): 500 g ai/ha
How it was run: (§2)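 Planted in loam–sand blend; treated the same day preemergence by directed soil spray, while separately grown plants at one- to two-leaf stage got postemergence spray. Compared visually with untreated controls after approximately 10 days; 100 means complete control.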

[3] = test system: ryegrass, Italian; experiment: Test A pre-/postemergence herbicide test; format: in vivo, Lolium multiflorum; conditions: for Plant response rating, Ryegrass, Italian: 0 to 100 scale
How it was run: as §2

[4] = test system: galium; experiment: Test A postemergence herbicide test; format: in vivo, Galium aparine; conditions: for Plant response rating, Galium: 125 g ai/ha, 0 to 100 scale, 0 is no effect, 100 is complete control; for Galium plant response rating (0 to 100 scale, 0 is no effect, 100 is complete control): 500 g ai/ha
How it was run: as §1

[5] = test system: wheat; experiment: Test A pre-/postemergence herbicide test; format: in vivo, Triticum aestivum; conditions: Postemergence; for Plant response rating, Wheat: 125 g ai/ha, 0 to 100 scale, 0 is no effect, 100 is complete control; for Wheat plant response rating (0 to 100 scale, 0 is no effect, 100 is complete control): 500 g ai/ha
How it was run: as §2

[6] = test system: pigweed; experiment: Test A pre-/postemergence herbicide test; format: in vivo, Amaranthus retroflexus; conditions: for Plant response rating, Pigweed: 0 to 100 scale
How it was run: as §2

[7] = test system: kochia; experiment: Test A pre-/postemergence herbicide test; format: in vivo, Kochia scoparia; conditions: for Plant response rating, Kochia: 0 to 100 scale
How it was run: as §2

[8] = test system: sedge, umbrella; experiment: Test B flooded paddy test; format: in vivo, Cyperus difformis; conditions: Flood, scale of 0 to 100 where 0 is no effect and 100 is complete control
How it was run: (§3)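 Treatment was made at the 2-leaf stage by dosing the standing floodwater, kept 3 cm above soil level for the whole test. Greenhouse exposure lasted 13 to 15 days. Response is a visual percent rating relative to controls, where a dash indicates no test result.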

[9] = test system: barnyardgrass; experiment: Test B flooded paddy test; format: in vivo, Echinochloa crus-galli; conditions: Flood, scale of 0 to 100 where 0 is no effect and 100 is complete control
How it was run: as §3

[10] = test system: ragweed; experiment: Test A pre-/postemergence herbicide test; format: in vivo, Ambrosia elatior; conditions: for Plant response rating, Ragweed: 0 to 100 scale
How it was run: as §2

[11] = test system: ducksalad; experiment: Test B flooded paddy test; format: in vivo, Heteranthera limosa; conditions: Flood, scale of 0 to 100 where 0 is no effect and 100 is complete control
How it was run: as §3

[12] = test system: rice; experiment: Test B flooded paddy test; format: in vivo, Oryza sativa; conditions: Flood, scale of 0 to 100 where 0 is no effect and 100 is complete control
How it was run: as §3

[13] = test system: giant foxtail; experiment: Test A pre-/postemergence herbicide test; format: in vivo, Setaria faberii; conditions: for Plant response rating, Foxtail, Giant: 0 to 100 scale
How it was run: as §2

[14] = test system: barnyardgrass; experiment: Test A pre-/postemergence herbicide test; format: in vivo, Echinochloa crus-galli; conditions: for Plant response rating, Barnyardgrass: 0 to 100 scale
How it was run: as §2

[15] = 125 g ai/ha, visual rating, 0 no effect, 100 complete control, approximately 10 days, preemergence
[16] = Postemergence, 125 g ai/ha, 0 is no effect, 100 is complete control
[17] = preemergence, 500 g ai/ha, 0 is no effect and 100 is complete control

CCCN1CC(c2ccc(C(F)(F)F)cc2)C(C(=O)Nc2ccccc2F)C1=O (stereo not drawn) [Compound 181]
80: Plant response rating, Kochia [7, 17]
0: Plant response rating, Corn [2] | Corn plant response rating (0 to 100 scale, 0 is no effect, 100 is complete control) [2] | Plant response rating, Ryegrass, Italian [3, 15] | Plant response rating, Ryegrass, Italian [3, 16] | Ryegrass, Italian plant response rating (0 to 100 scale, 0 is no effect, 100 is complete control) ([3]; Postemergence, 500 g ai/ha) | Plant response rating, Ryegrass, Italian [3, 17] | Plant response rating, Galium [4] | Galium plant response rating (0 to 100 scale, 0 is no effect, 100 is complete control) [4] | Plant response rating, Wheat [5] | Wheat plant response rating (0 to 100 scale, 0 is no effect, 100 is complete control) [5] | Plant response rating, Pigweed [6, 15] | Plant response rating, Pigweed [6, 16] | Plant response rating, Pigweed [6, 17] | Plant response rating, Sedge, Umbrella ([8]; 500 g ai/ha) | Plant response rating, Barnyardgrass ([9]; 500 g ai/ha) | Plant response rating, Ragweed [10, 15] | Plant response rating, Ragweed [10, 16] | Ragweed plant response rating (0 to 100 scale, 0 is no effect, 100 is complete control) ([10]; Postemergence, 500 g ai/ha) | Plant response rating, Ragweed [10, 17] | Plant response rating, Ducksalad ([11]; 500 g ai/ha) | Plant response rating, Rice ([12]; 500 g ai/ha) | Plant response rating, Foxtail, Giant [13, 16] | Foxtail, Giant plant response rating (0 to 100 scale, 0 is no effect, 100 is complete control) ([13]; Postemergence, 500 g ai/ha) | Plant response rating, Barnyardgrass [14, 15] | Plant response rating, Barnyardgrass [14, 16] | Barnyardgrass plant response rating (0 to 100 scale, 0 is no effect, 100 is complete control) ([14]; Postemergence, 500 g ai/ha) | Plant response rating, Barnyardgrass [14, 17]
50: Blackgrass plant response rating (0 to 100 scale, 0 is no effect, 100 is complete control) [1] | Pigweed plant response rating (0 to 100 scale, 0 is no effect, 100 is complete control) ([6]; Postemergence, 500 g ai/ha) | Plant response rating, Kochia [7, 15]
70: Kochia plant response rating (0 to 100 scale, 0 is no effect, 100 is complete control) ([7]; Postemergence, 500 g ai/ha) | Plant response rating, Foxtail, Giant [13, 17]
10: Plant response rating, Kochia [7, 16] | Plant response rating, Foxtail, Giant [13, 15]
40: Plant response rating, Blackgrass [1]

CCCN1CC(c2ccc(C(F)(F)F)cc2)C(C(=O)Nc2cccc(F)c2F)C1=O (stereo not drawn) [Compound 182]
10: Foxtail, Giant plant response rating (0 to 100 scale, 0 is no effect, 100 is complete control) ([13]; Postemergence, 500 g ai/ha)
30: Plant response rating, Ducksalad ([11]; 500 g ai/ha)
50: Plant response rating, Foxtail, Giant [13, 15]
0: Plant response rating, Blackgrass [1] | Blackgrass plant response rating (0 to 100 scale, 0 is no effect, 100 is complete control) [1] | Plant response rating, Corn [2] | Corn plant response rating (0 to 100 scale, 0 is no effect, 100 is complete control) [2] | Plant response rating, Ryegrass, Italian [3, 15] | Plant response rating, Ryegrass, Italian [3, 16] | Ryegrass, Italian plant response rating (0 to 100 scale, 0 is no effect, 100 is complete control) ([3]; Postemergence, 500 g ai/ha) | Plant response rating, Ryegrass, Italian [3, 17] | Plant response rating, Galium [4] | Galium plant response rating (0 to 100 scale, 0 is no effect, 100 is complete control) [4] | Plant response rating, Wheat [5] | Wheat plant response rating (0 to 100 scale, 0 is no effect, 100 is complete control) [5] | Plant response rating, Pigweed [6, 15] | Plant response rating, Pigweed [6, 16] | Pigweed plant response rating (0 to 100 scale, 0 is no effect, 100 is complete control) ([6]; Postemergence, 500 g ai/ha) | Plant response rating, Pigweed [6, 17] | Plant response rating, Kochia [7, 15] | Plant response rating, Kochia [7, 16] | Kochia plant response rating (0 to 100 scale, 0 is no effect, 100 is complete control) ([7]; Postemergence, 500 g ai/ha) | Plant response rating, Kochia [7, 17] | Plant response rating, Sedge, Umbrella ([8]; 500 g ai/ha) | Plant response rating, Barnyardgrass ([9]; 500 g ai/ha) | Plant response rating, Ragweed [10, 15] | Plant response rating, Ragweed [10, 16] | Ragweed plant response rating (0 to 100 scale, 0 is no effect, 100 is complete control) ([10]; Postemergence, 500 g ai/ha) | Plant response rating, Ragweed [10, 17] | Plant response rating, Rice ([12]; 500 g ai/ha) | Plant response rating, Foxtail, Giant [13, 16] | Plant response rating, Barnyardgrass [14, 15] | Plant response rating, Barnyardgrass [14, 16] | Barnyardgrass plant response rating (0 to 100 scale, 0 is no effect, 100 is complete control) ([14]; Postemergence, 500 g ai/ha) | Plant response rating, Barnyardgrass [14, 17]
70: Plant response rating, Foxtail, Giant [13, 17]

O=C1NCC(c2cccc(S(F)(F)(F)(F)F)c2)C1C(=O)Nc1cccc(F)c1F (stereo not drawn) [Compound 214]
60: Plant response rating, Barnyardgrass [14, 16]
20: Plant response rating, Rice ([12]; 1000 g ai/ha)
90: Plant response rating, Ducksalad ([11]; 1000 g ai/ha) | Foxtail, Giant plant response rating (0 to 100 scale, 0 is no effect, 100 is complete control) ([13]; Postemergence, 500 g ai/ha) | Plant response rating, Foxtail, Giant [13, 17]
75: Plant response rating, Barnyardgrass ([9]; 1000 g ai/ha)
10: Plant response rating, Ryegrass, Italian [3, 16]
70: Blackgrass plant response rating (0 to 100 scale, 0 is no effect, 100 is complete control) [1] | Galium plant response rating (0 to 100 scale, 0 is no effect, 100 is complete control) [4] | Plant response rating, Pigweed [6, 17] | Plant response rating, Barnyardgrass [14, 15] | Barnyardgrass plant response rating (0 to 100 scale, 0 is no effect, 100 is complete control) ([14]; Postemergence, 500 g ai/ha)
50: Corn plant response rating (0 to 100 scale, 0 is no effect, 100 is complete control) [2] | Wheat plant response rating (0 to 100 scale, 0 is no effect, 100 is complete control) [5] | Pigweed plant response rating (0 to 100 scale, 0 is no effect, 100 is complete control) ([6]; Postemergence, 500 g ai/ha)
40: Plant response rating, Blackgrass [1] | Plant response rating, Galium [4] | Kochia plant response rating (0 to 100 scale, 0 is no effect, 100 is complete control) ([7]; Postemergence, 500 g ai/ha)
30: Plant response rating, Corn [2] | Ryegrass, Italian plant response rating (0 to 100 scale, 0 is no effect, 100 is complete control) ([3]; Postemergence, 500 g ai/ha)
0: Plant response rating, Ryegrass, Italian [3, 15] | Plant response rating, Ryegrass, Italian [3, 17] | Plant response rating, Wheat [5] | Plant response rating, Pigweed [6, 15] | Plant response rating, Pigweed [6, 16] | Plant response rating, Kochia [7, 15] | Plant response rating, Kochia [7, 16] | Plant response rating, Sedge, Umbrella ([8]; 1000 g ai/ha) | Plant response rating, Ragweed [10, 15] | Plant response rating, Ragweed [10, 16] | Ragweed plant response rating (0 to 100 scale, 0 is no effect, 100 is complete control) ([10]; Postemergence, 500 g ai/ha) | Plant response rating, Ragweed [10, 17]
80: Plant response rating, Kochia [7, 17] | Plant response rating, Foxtail, Giant [13, 15] | Plant response rating, Foxtail, Giant [13, 16] | Plant response rating, Barnyardgrass [14, 17]
